US8722849B2, “Polypeptides” (Novo Nordisk A/S, priority 2011, dated 2014)
≈ marks a conversion by molar mass, not a printed value. Read-outs that look alike come from different tables or passages of the source. Starred links: 1 amine or outer side, 2 acyl side, 3 side chain; linkers in the order of their positions; H or OH if unused. Positions of bridges follow the written chain, without caps; N, C: chain ends. Residues, ends and D or L forms follow the SMILES beside them. Groups on a side chain read outwards from the residue. *: point of attachment. C20 diacid = O=C(O)CCCCCCCCCCCCCCCCCCC(=O)*; C18 diacid = O=C(O)CCCCCCCCCCCCCCCCC(=O)*; γGlu = O=C(O)[C@H](CCC(=O)[*:2])N[*:1]; AEEA = NCCOCCOCC(=O)O

Legend:
[1] = target: T1, human calcitonin receptor (Homo sapiens, UniProt P30988); experiment: Assay (II)a functional CRE-luciferase assay, human calcitonin receptor; format: cell-based; settings: Table 7; human calcitonin (CTa) receptor
T1 construct: expressed in transfected cells; host or cells: BHK570
T1 sequence (P30988 25-474): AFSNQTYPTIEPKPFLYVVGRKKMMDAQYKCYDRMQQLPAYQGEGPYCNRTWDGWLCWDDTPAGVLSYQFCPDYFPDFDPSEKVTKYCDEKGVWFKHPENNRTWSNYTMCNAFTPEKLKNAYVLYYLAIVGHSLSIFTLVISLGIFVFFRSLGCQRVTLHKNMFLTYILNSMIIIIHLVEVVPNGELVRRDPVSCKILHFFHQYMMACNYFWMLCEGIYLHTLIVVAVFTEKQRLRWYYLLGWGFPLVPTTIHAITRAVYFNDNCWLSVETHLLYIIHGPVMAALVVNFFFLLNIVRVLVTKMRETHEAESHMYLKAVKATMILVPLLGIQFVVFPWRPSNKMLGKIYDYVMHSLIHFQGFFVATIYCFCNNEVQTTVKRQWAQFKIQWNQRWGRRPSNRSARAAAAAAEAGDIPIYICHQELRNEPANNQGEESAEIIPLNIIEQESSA

[2] = target: T2, human amylin receptor (amylin 3(a) receptor: human calcitonin receptor + RAMP-3) (Homo sapiens, UniProt O60896+P30988); experiment: Assay (II)a functional CRE-luciferase assay, human amylin receptor; format: cell-based; settings: Table 2; BHK amylin 3(a)-receptor/CRE-luc cells
T2 construct: expressed in transfected cells; host or cells: BHK570
T2 sequence (P30988 25-474): T1 sequence (P30988 25-474)
T2 sequence (O60896 24-148 partner): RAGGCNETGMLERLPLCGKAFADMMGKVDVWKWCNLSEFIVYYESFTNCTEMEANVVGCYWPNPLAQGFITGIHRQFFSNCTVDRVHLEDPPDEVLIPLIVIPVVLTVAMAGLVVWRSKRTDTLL

[3] = Assay (III) ThT fibrillation assay for physical stability; format: physicochemical; settings: ThT fibrillation assay
Procedure, shortened: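 Freshly prepared formulations, pH-adjusted, with 1 μM ThT; four or eight replicates incubated at 37 °C under 960 rpm orbital shaking. Fluorescence (ex 444/em 485 nm) read every 20 min; […]. Peptide concentration measured by RP-HPLC before and after the run.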

[4] = Assay (IV) determination of solubility; format: physicochemical
Procedure, shortened: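 Polypeptide in water (~500 nmol/ml) mixed 1:1 with 100 mM glycylglycine (pH 3.0–5.0) or bistrispropane (pH 6.0–8.0) buffers. Held 18 hours at room temperature, then centrifuged. Polypeptide remaining in solution quantified by HPLC.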

[5] = bistrispropane buffer, pH 6, pH 6.0, read-out: Solubility pH 6.0
[6] = bistrispropane buffer, pH 6.5, pH 6.5, read-out: Solubility pH 6.5
[7] = bistrispropane buffer, pH 7, pH 7.0, read-out: Solubility pH 7.0
[8] = bistrispropane buffer, pH 7.5, pH 7.5, read-out: Solubility pH 7.5
[9] = bistrispropane buffer, pH 8, pH 8.0, read-out: Solubility pH 8.0
[10] = glycylglycine buffer, pH 3, pH 3.0, read-out: Solubility pH 3.0
[11] = glycylglycine buffer, pH 4, pH 4.0, 18 hours at room temperature, Table 2, read-out: Solubility pH 4.0
[12] = glycylglycine buffer, pH 4, pH 4.0, read-out: Solubility pH 4.0
[13] = glycylglycine buffer, pH 5, pH 5.0, read-out: Solubility pH 5.0

| EC50 [1] [nM] | EC50 [2] [nM] | ThT pH 4.0 lag time [3] [h] | ThT pH 4.0 lag time (h) [3] [h] | solubility at 18 h [4, 5] [µM] | solubility at 18 h [4, 6] [µM] | solubility at 18 h [4, 7] [µM] | solubility at 18 h [4, 8] [µM] | solubility at 18 h [4, 9] [µM] | solubility at 18 h [4, 10] [µM] | solubility at 18 h [4, 11] [µM] | solubility at 18 h [4, 12] [µM] | solubility at 18 h [4, 13] [µM] | solubility at 18 h ([4]; bistrispropane buffer, pH 7, pH 7.0, 18 hours at room temperature, Table 3, read-out: Solubility pH 7.0) [µM] | SMILES |
| --- | --- | --- | --- | --- | --- | --- | --- | --- | --- | --- | --- | --- | --- | --- |
| 0.43 | 0.0935 | >45 | >45 | > 200 | 170 (≈ 788 µg/mL) | 17 (≈ 78.8 µg/mL) | 6 (≈ 27.8 µg/mL) | 7 (≈ 32.4 µg/mL) | > 200 | > 200 | > 200 | > 200 | – | CC[C@H](C)[C@H](NC(=O)[C@@H]1CCCN1C(=O)CNC(=O)[C@H](Cc1ccccc1)NC(=O)[C@H](CC(N)=O)NC(=O)[C@H](CC(N)=O)NC(=O)[C@H](CO)NC(=O)[C@H](CO)NC(=O)[C@H](Cc1c[nH]cn1)NC(=O)[C@H](CCCNC(=N)N)NC(=O)[C@H](CC(C)C)NC(=O)[C@H](Cc1ccccc1)NC(=O)[C@H](CCC(=O)O)NC(=O)[C@H](C)NC(=O)[C@H](CC(C)C)NC(=O)[C@H](CCCNC(=N)N)NC(=O)[C@H](CCC(N)=O)NC(=O)[C@@H](NC(=O)[C@H](C)NC(=O)[C@@H]1CSSC[C@H](NC(=O)[C@H](CCCCN)NC(=O)[C@H](Cc2c[nH]cn2)NC(=O)CC[C@H](NC(=O)CCCCCCCCCCCCCCCCCCC(=O)O)C(=O)O)C(=O)N[C@@H](CC(N)=O)C(=O)N[C@@H]([C@@H](C)O)C(=O)N[C@@H](C)C(=O)N[C@@H]([C@@H](C)O)C(=O)N1)[C@@H](C)O)C(=O)N[C@@H](CC(C)C)C(=O)N1CCC[C@H]1C(=O)N1CCC[C@H]1C(=O)N[C@H](C(=O)N[C@@H](CC(N)=O)C(=O)N[C@H](C(=O)NCC(=O)N[C@@H](CO)C(=O)N[C@@H](Cc1c[nH]cn1)C(=O)N[C@H](C(=O)N[C@@H](Cc1ccc(O)cc1)C(N)=O)[C@@H](C)O)C(C)C)[C@@H](C)O [Example 68, N-alpha-[(S)-4-Carboxy-4-(19-carboxynonadecanoylamino)butyryl]-His-[Glu14,Arg17,His35]-pramlintide] ({C20 diacid-γGlu}-HKCNTATCATQRLAEFLRHSSNNFGPILPPTNVGSHTY-NH2; disulfide 3-8 (inferred); C-terminus assumed) |
| 0.615 | 0.101 | >45 | >45 | > 200 | 158 (≈ 754 µg/mL) | 6 (≈ 28.6 µg/mL) | 2 (≈ 9.54 µg/mL) | 24 (≈ 115 µg/mL) | > 200 | > 200 | > 200 | > 200 | – | CC[C@H](C)[C@H](NC(=O)[C@@H]1CCCN1C(=O)CNC(=O)[C@H](Cc1ccccc1)NC(=O)[C@H](CC(N)=O)NC(=O)[C@H](CC(N)=O)NC(=O)[C@H](CO)NC(=O)[C@H](CO)NC(=O)[C@H](Cc1c[nH]cn1)NC(=O)[C@H](CCCNC(=N)N)NC(=O)[C@H](CC(C)C)NC(=O)[C@H](Cc1ccccc1)NC(=O)[C@H](CCC(=O)O)NC(=O)[C@H](C)NC(=O)[C@H](CC(C)C)NC(=O)[C@H](CCCNC(=N)N)NC(=O)[C@H](CCC(N)=O)NC(=O)[C@@H](NC(=O)[C@H](C)NC(=O)[C@@H]1CSSC[C@H](NC(=O)[C@H](CCCCN)NC(=O)[C@H](Cc2c[nH]cn2)NC(=O)[C@H](Cc2c[nH]cn2)NC(=O)CC[C@H](NC(=O)CCCCCCCCCCCCCCCCCCC(=O)O)C(=O)O)C(=O)N[C@@H](CC(N)=O)C(=O)N[C@@H]([C@@H](C)O)C(=O)N[C@@H](C)C(=O)N[C@@H]([C@@H](C)O)C(=O)N1)[C@@H](C)O)C(=O)N[C@@H](CC(C)C)C(=O)N1CCC[C@H]1C(=O)N1CCC[C@H]1C(=O)N[C@H](C(=O)N[C@@H](CC(N)=O)C(=O)N[C@H](C(=O)NCC(=O)N[C@@H](CO)C(=O)N[C@@H](Cc1c[nH]cn1)C(=O)N[C@H](C(=O)N[C@@H](Cc1ccc(O)cc1)C(N)=O)[C@@H](C)O)C(C)C)[C@@H](C)O [Example 69, N-alpha-[(S)-4-Carboxy-4-(19-carboxynonadecanoylamino)butyryl]-His-His-[Glu14,Arg17,His35]-pramlintide] ({C20 diacid-γGlu}-HHKCNTATCATQRLAEFLRHSSNNFGPILPPTNVGSHTY-NH2; disulfide 4-9 (inferred)) |
| 0.099 | 0.0585 | >45 | >45 | > 200 | 69 (≈ 317 µg/mL) | 32 (≈ 147 µg/mL) | 52 (≈ 239 µg/mL) | 89 (≈ 408 µg/mL) | > 200 | > 200 | > 200 | > 200 | – | CC[C@H](C)[C@H](NC(=O)[C@@H]1CCCN1C(=O)CNC(=O)[C@H](Cc1ccccc1)NC(=O)[C@H](CC(N)=O)NC(=O)[C@H](CC(N)=O)NC(=O)[C@H](CO)NC(=O)[C@H](CO)NC(=O)[C@H](Cc1c[nH]cn1)NC(=O)[C@H](Cc1c[nH]cn1)NC(=O)[C@H](CC(C)C)NC(=O)[C@H](Cc1ccccc1)NC(=O)[C@H](CCC(=O)O)NC(=O)[C@H](C)NC(=O)[C@H](CC(C)C)NC(=O)[C@H](CCCNC(=N)N)NC(=O)[C@H](CCC(N)=O)NC(=O)[C@@H](NC(=O)[C@H](C)NC(=O)[C@@H]1CSSC[C@H](NC(=O)[C@H](CCCCN)NC(=O)[C@H](Cc2c[nH]cn2)NC(=O)CC[C@H](NC(=O)CCCCCCCCCCCCCCCCC(=O)O)C(=O)O)C(=O)N[C@@H](CC(N)=O)C(=O)N[C@@H]([C@@H](C)O)C(=O)N[C@@H](C)C(=O)N[C@@H]([C@@H](C)O)C(=O)N1)[C@@H](C)O)C(=O)N[C@@H](CC(C)C)C(=O)N1CCC[C@H]1C(=O)N1CCC[C@H]1C(=O)N[C@H](C(=O)N[C@@H](CC(N)=O)C(=O)N[C@H](C(=O)NCC(=O)N[C@@H](CO)C(=O)N[C@@H](Cc1c[nH]cn1)C(=O)N[C@H](C(=O)N[C@@H](Cc1ccc(O)cc1)C(N)=O)[C@@H](C)O)C(C)C)[C@@H](C)O [Example 70, N-alpha-[(S)-4-Carboxy-4-(17-carboxyheptadecanoylamino)butyryl]-His-[Glu14,His17,His35]-pramlintide] ({C18 diacid-γGlu}-HKCNTATCATQRLAEFLHHSSNNFGPILPPTNVGSHTY-NH2; disulfide 3-8 (inferred); C-terminus assumed) |
| 0.101 | 0.089 | – | 10.3 | 168 (≈ 787 µg/mL) | 130 (≈ 609 µg/mL) | 126 (≈ 590 µg/mL) | 165 (≈ 773 µg/mL) | > 200 | > 200 | > 200 | > 200 | > 200 | 126 (≈ 590 µg/mL) | CC[C@H](C)[C@H](NC(=O)[C@H](CCCCNC(=O)COCCOCCNC(=O)COCCOCCNC(=O)CC[C@H](NC(=O)CCCCCCCCCCCCCCCCC(=O)O)C(=O)O)NC(=O)CNC(=O)[C@H](Cc1ccccc1)NC(=O)[C@H](CC(N)=O)NC(=O)[C@H](CO)NC(=O)[C@H](CO)NC(=O)[C@H](CO)NC(=O)[C@H](Cc1c[nH]cn1)NC(=O)[C@@H](NC(=O)[C@H](CC(C)C)NC(=O)[C@H](Cc1ccccc1)NC(=O)[C@H](CCC(=O)O)NC(=O)[C@H](C)NC(=O)[C@H](CC(C)C)NC(=O)[C@H](CCCNC(=N)N)NC(=O)[C@H](CCC(N)=O)NC(=O)[C@@H](NC(=O)[C@H](C)NC(=O)[C@@H]1CSSC[C@H](NC(=O)[C@@H](N)CCCCN)C(=O)N[C@@H](CC(N)=O)C(=O)N[C@@H]([C@@H](C)O)C(=O)N[C@@H](C)C(=O)N[C@@H]([C@@H](C)O)C(=O)N1)[C@@H](C)O)C(C)C)C(=O)N[C@@H](CC(C)C)C(=O)N1CCC[C@H]1C(=O)N1CCC[C@H]1C(=O)N[C@H](C(=O)N[C@@H](CC(N)=O)C(=O)N[C@H](C(=O)NCC(=O)N[C@@H](CO)C(=O)N[C@@H](CC(N)=O)C(=O)N[C@H](C(=O)N[C@@H](Cc1ccc(O)cc1)C(N)=O)[C@@H](C)O)C(C)C)[C@@H](C)O [Example 72, N-epsilon25-[2-(2-{2-[2-(2-{2-[(S)-4-Carboxy-4-(17-carboxyheptadecanoylamino)butyrylamino]ethoxy}ethoxy)acetylamino]ethoxy}ethoxy)acetyl]-[Glu14,Ser21,Lys25]-pramlintide] (H-KCNTATCATQRLAEFLVHSSSNFGK([AEEA-AEEA-γGlu-C18 diacid])ILPPTNVGSNTY-NH2; disulfide 2-7 (inferred); N-terminus assumed) |
